Reference: patent US7566812B2, “Transgenic mouse models of hepatitis C virus (HCV) and identification of HCV therapeutics” (priority 2004, dated 2009)

Experiments:
NS3/4A-Tg mice = assay: Survival after TNF-α/D-Gal challenge, NS3/4A transgenic mice; format: in vivo, mouse
Description: (§1) This Example describes several of the approaches used to induce hepatic injury in the NS3/4A-Tg mice and the techniques used to analyze the data. All NS3/4A-Tg or wild-type (Wt) mice used in these experiments were male and/or females between 6-12 weeks old. All groups of mice contained five to ten mice. Comparisons were done in age matched animals, excluding an age dependent difference when comparing groups. For the carbon tetrachloride (CCl4) treatment, CCl4 was diluted in 100 μL olive oil and administered intraperitoneal (i.p.) as a single dose to NS3/4A-Tg and Wt mice. Each mouse was treated with 10 mg (0.5 g/kg) CCl4 (Sigma). Serum from individual mice was collected at various time intervals (12, 24, 48, and 72 hours) after CCl4-treatment by retro-orbital bleeding. Serum alanine aminotransferase (ALT) values were measured to evaluate the extent of liver injury. […] Serum ALT values were measured to evaluate the extent of liver injury. […] Serum ALT values were measured to evaluate the extent of liver injury. […] Serum ALT values were measured to evaluate the extent of liver injury. […] Serum ALT values were measured to evaluate the extent of liver injury.
(§2) SB203580 (Calbiochem) was dissolved/diluted in sterile dH2O and administered to mice intra orally (i.o.). […] The following Example teaches how the above data were statistically analyzed.

HCV = assay: Treatment of a patient with HCV related complications; format: in vivo; conditions: repeated course of treatment
Description: A patient in need of treatment of HCV related complications is identified by routine methods. The patient is administered an amount of SB203580, based on the particular patient and the severity of the HCV symptoms. Following a repeated course of treatment, if required, the patient's HCV related symptoms are reduced. In some applications, the reduction of viral lode or another indicator for HCV infection is measured. The next example describes more transgenic organisms that contain the constructs described herein.

wild-type mice = assay: Survival after TNF-α/D-Gal challenge, wild-type mice; format: in vivo, mouse
Description: as §1, §2

[1] = tested on: NS3/4A-SP2/0 tumor cell line; assay: In vivo tumor growth assay in immunized Balb/c mice, NS3/4A-SP2/0 cells; conditions: 3 mg ribavirin with 100, 10 or 1 micrograms coNS3/4A, single immunization
Description: To study whether the constructs described above were capable of eliciting a cell-mediated response against NS3, an in vivo tumor growth assay was performed. To this end, an SP2/0 tumor cell line (SP2/0-Ag14 myeloma cell line (H-2^d)) stably transfected with the NS3/4A gene was made. The SP2/0 cells were maintained in DMEM medium supplemented with 10% fetal calf serum (FCS; Sigma Chemicals, St. Louis, Mo.), 2 mM L-Glutamine, 10 mM HEPES, 100 U/ml Penicillin and 100 μg/ml Streptomycin, 1 mM non-essential amino acids, 50 μM β-mercaptoethanol, 1 mM sodium pyruvate (GIBCO-BRL, Gaithesburgh, Md.). The pcDNA3.1 plasmid containing the NS3/4A gene was linearized by BglII digestion. […]
Transfected cells were cloned by limiting dilution and selected by addition of 800 μg geneticin (G418)/ml complete DMEM medium after 14 days. […] Bound murine serum antibodies were detected by an alkaline phosphatase conjugated goat anti-mouse IgG (Sigma cell products, Saint Louis, Mo. USA) followed by addition of the substrate pNPP (1 tablet/5 ml of 1 M Diethanolamin buffer with 0.5 mM MgCl2). […] Absorbance was then read at 405 nm.
The in vivo growth kinetics of the SP2/0 and the NS3/4A-SP2/0 cell lines were then evaluated in Balb/c mice. […] Each day the size of the tumor was determined through the skin. […]

[2] = tested on: NS3/4A-EL-4 tumor cell line; assay: Tumor challenge model with NS3/4A-EL-4 tumor cells; format: in vivo; conditions: C57BL/6 mice
Excerpt: To define the in vivo functional anti-tumor effector cell population, CD4+ or CD8+ T cells were depleted in mice immunized with the coNS3/4A plasmid one week prior to, and during, challenge with the NS3/4A-EL-4 tumor cell line. […] Thus, NS3/4A-specific CD8+ CTLs are the major protective cell at the effector stage in the in vivo model for inhibition of tumor growth.
The tumor challenge model was used to evaluate how effective the different immunogens were in priming a protective immunity against growth of NS3/4A-EL4 tumor cells in vivo. To ensure that the effectiveness of the priming event was studied, all mice were immunized only once. Vectors containing NS3/4A were able to rapidly prime protective immune responses as compared to the immunized with the empty pVAX plasmid (p<0.05, ANOVA; FIG. 10). […] The next example examines the prerequisites for priming of CD8+ CTL.
To further clarify the prerequisites for priming of CD8+ CTL additional experiments were performed. First, C57BL/6 mice immunized with the NS3-derived CTL peptide were not protected against growth of NS3/4A-EL-4 tumors. […] To further characterize the priming event, groups of B cell (μMT; Kitamura D., et al., Nature, 350: 423-426 (1991)) or CD4 deficient C57BL/6 mice (Rahemtulla A et al., Nature, 353:180-184 (1991)) were immunized once with the coNS3/4A gene using gene gun, and challenged two weeks later (FIG. 10). […]

[3] = 0.5 mg (25 mg/kg) i.o. thirty minutes prior to rm TNF-α/D-Gal

C[S+]([O-])c1ccc(-c2nc(-c3ccncc3)c(-c3ccc(F)cc3)[nH]2)cc1 (stereo not shown) [SB203580]
TNF-alpha sensitivity phenotype (survival) of NS3/4A transgenic mice (NS3/4A-Tg mice; [3]): reverted to TNF-alpha sensitive phenotype
patient's HCV related symptoms (HCV): reduced
impact on the survival rate of wild-type mice provided TNF-alpha (wild-type mice; [3]): no significant

NC(=O)c1ncn([C@@H]2O[C@H](CO)[C@@H](O)[C@H]2O)n1 [ribavirin, 1-β-D-ribofuranosyl-1,2,4-triazole-3-carboxamide]
effect of the adjuvant on the effectiveness of the initial coNS3/4A immunization (tumor size) [1]: dramatically increased the effectiveness

TNF-α
survival of the lethal TNF-α dose (NS3/4A-Tg mice; 5 μg/kg, NS3/4A-Tg mice): all NS3/4A-Tg mice survived
mice killed (wild-type mice; 5 μg/kg, non-transgenic mice, within 24 hours): 80%

GAVQNEVTL (Artificial Peptide, NS3/4A H-2D Binding Peptide) [NS3-derived CTL peptide]
protection against growth of NS3/4A-EL-4 tumors [2]: not protected
